According to patent US10912814B2, “Combination formulation of three antiviral compounds” (priority 2016, dated 2021):

Columns and labels:
HCV RNA = experiment: Emax PK/PD modeling of sofosbuvir exposure vs HCV RNA change from baseline; format: in vivo; details: 400 mg sofosbuvir dose
Procedure: The sofosbuvir dose selected for the tablet formulation is 400 mg once daily. Support for the 400 mg sofosbuvir dose can be derived from Emax PK/PD modeling with early virological and human exposure data which also supports the selection of a 400 mg sofosbuvir dose over others tested.
The mean sofosbuvir major metabolite AUCtau for the 400 mg sofosbuvir dose is associated with approximately 77% of the maximal HCV RNA change from baseline achievable as determined by this model, a value which is on the cusp of the plateau of the exposure-response sigmoidal curve. In a sigmoidal Emax model, there is a relatively linear exposure-response relationship in the 20 to 80% maximal effect range. Therefore, given that sofosbuvir exposure with 200 mg tablets appears dose-proportional with single doses up to 1200 mg, doses below 400 mg are expected to yield considerable reductions in the magnitude of HCV RNA change from baseline.

[1] = Tablet dissolution in 50 mM sodium acetate buffer pH 5.0 with 2.0% w/v Polysorbate 80 and 0.001% w/v BHT, 75 rpm, 900 mL, 37° C., USP Type II; format: physicochemical

## CC(C)OC(=O)C(C)N[P@](=O)(OC[C@H]1O[C@@H](n2ccc(=O)[nH]c2=O)[C@](C)(F)[C@@H]1O)Oc1ccccc1 (stereo in doubt) [Sofosbuvir, (S)-isopropyl 2-(((S)-(((2R,3R,4R,5R)-5-(2,4-dioxo-3,4-dihydropyrimidin-1(2H)-yl)-4-fluoro-3-hydroxy-4-methyltetrahydrofuran-2-yl)methoxy)(phenoxy)phosphoryl)amino)propanoate]
HCV RNA
  fraction of the maximal HCV RNA change from baseline achievable (Emax model) associated with mean major metabolite AUCtau: approximately 77%
[1]; Batch C tablets, closed 1 g desiccant, 25° C./60% RH, 6 months
  Dissolved at 30 min (%): 99%
[1]; Batch C tablets, closed 1 g desiccant, 30° C./75% RH, 3 months
  Dissolved at 30 min (%): 99%
[1]; Batch C tablets, closed 1 g desiccant, 40° C./75% RH, 3 months
  Dissolved at 30 min (%): 100%
[1]; Batch C tablets, closed 1 g desiccant, 40° C./75% RH, 6 months
  Dissolved at 30 min (%): 99%
[1]; Lot A tablets (super-potent VEL SSD, super-potent VOX SSD), Initial, time 0
  Dissolved at 30 min (%): 100%
[1]; Lot A tablets (super-potent VEL SSD, super-potent VOX SSD), closed, 1 g desiccant, 25° C./60% RH, 12 weeks
  Dissolved at 30 min (%): 99%
[1]; Lot A tablets (super-potent VEL SSD, super-potent VOX SSD), closed, 1 g desiccant, 40° C./75% RH, 12 weeks
  Dissolved at 30 min (%): 100%
[1]; Lot B tablets (sub-potent VEL SSD, sub-potent VOX SSD), Initial, time 0
  Dissolved at 30 min (%): 83%
[1]; Lot B tablets (sub-potent VEL SSD, sub-potent VOX SSD), closed, 1 g desiccant, 25° C./60% RH, 12 weeks
  Dissolved at 30 min (%): 82%
[1]; Lot B tablets (sub-potent VEL SSD, sub-potent VOX SSD), closed, 1 g desiccant, 40° C./75% RH, 4 weeks
  Dissolved at 30 min (%): 85%
[1]; Lot B tablets (sub-potent VEL SSD, sub-potent VOX SSD), closed, 1 g desiccant, 40° C./75% RH, 12 weeks
  Dissolved at 30 min (%): 84%
[1]; Lot B tablets (sub-potent VEL SSD, sub-potent VOX SSD), open, no cap, 40° C./75% RH, 4 weeks
  Dissolved at 30 min (%): 100%
[1]; Lot C tablets (sub-potent VEL SSD, super-potent VOX SSD), Initial, time 0
  Dissolved at 30 min (%): 99%
[1]; Lot C tablets (sub-potent VEL SSD, super-potent VOX SSD), closed, 1 g desiccant, 25° C./60% RH, 12 weeks
  Dissolved at 30 min (%): 98%
[1]; Lot C tablets (sub-potent VEL SSD, super-potent VOX SSD), closed, 1 g desiccant, 40° C./75% RH, 4 weeks
  Dissolved at 30 min (%): 100%
[1]; Lot C tablets (sub-potent VEL SSD, super-potent VOX SSD), closed, 1 g desiccant, 40° C./75% RH, 12 weeks
  Dissolved at 30 min (%): 98%
[1]; Lot C tablets (sub-potent VEL SSD, super-potent VOX SSD), open, no cap, 40° C./75% RH, 4 weeks
  Dissolved at 30 min (%): 99%
[1]; Lot D tablets (super-potent VEL SSD, sub-potent VOX SSD), closed, 1 g desiccant, 25° C./60% RH, 12 weeks
  Dissolved at 30 min (%): 98%
[1]; Lot D tablets (super-potent VEL SSD, sub-potent VOX SSD), closed, 1 g desiccant, 40° C./75% RH, 4 weeks
  Dissolved at 30 min (%): 98%
[1]; Lot D tablets (super-potent VEL SSD, sub-potent VOX SSD), closed, 1 g desiccant, 40° C./75% RH, 12 weeks
  Dissolved at 30 min (%): 98%
[1]; Lot D tablets (super-potent VEL SSD, sub-potent VOX SSD), open, no cap, 40° C./75% RH, 4 weeks
  Dissolved at 30 min (%): 99%
[1]; SSD potency tablets Lot B, after 4 weeks open at 40° C./75% RH
  dissolution at 30 minutes: 100%
[1]; tablet Lots A and B made with different sofosbuvir particle size distributions
  released at 30 minutes: 101%
[1]; tablets Batch A, 25° C./60% RH, 3 mo
  Dissolved at 30 min (%): 98%
[1]; tablets Batch A, 25° C./60% RH, 6 mo
  Dissolved at 30 min (%): 98%
[1]; tablets Batch A, 30° C./75% RH, 3 mo
  Dissolved at 30 min (%): 98%
[1]; tablets Batch A, 40° C./75% RH, 1 mo
  Dissolved at 30 min (%): 98%
[1]; tablets Batch A, 40° C./75% RH, 6 mo
  Dissolved at 30 min (%): 100%
[1]; tablets Batch B, 25° C./60% RH, 3 mo
  Dissolved at 30 min (%): 99%
[1]; tablets Batch B, 25° C./60% RH, 6 mo
  Dissolved at 30 min (%): 99%
[1]; tablets Batch B, 30° C./75% RH, 3 mo
  Dissolved at 30 min (%): 99%
[1]; tablets Batch B, 30° C./75% RH, 6 mo
  Dissolved at 30 min (%): 99%
[1]; tablets Batch B, 40° C./75% RH, 1 mo
  Dissolved at 30 min (%): 100%
[1]; tablets Batch B, 40° C./75% RH, 3 mo
  Dissolved at 30 min (%): 100%
[1]; tablets Batch B, Initial, 0 mo
  Dissolved at 30 min (%): 99%
[1]; tablets Batch D, Initial, 0 mo
  Dissolved at 30 min (%): 100%
[1]; tablets from VEL SSD 7.0% / VOX SSD 3.2% water content, Initial, time 0
  Dissolved at 30 min (%): 100%
[1]; tablets from VEL SSD 7.0% / VOX SSD 3.2% water content, closed, 1 g desiccant, 25° C./60% RH, 12 weeks
  Dissolved at 30 min (%): 98%
[1]; tablets from VEL SSD 7.0% / VOX SSD 3.2% water content, closed, 1 g desiccant, 40° C./75% RH, 12 weeks
  Dissolved at 30 min (%): 99%
[1]; tablets from VEL SSD 7.0% / VOX SSD 3.2% water content, open, no desiccant, 40° C./75% RH, 4 weeks
  Dissolved at 30 min (%): 100%
[1]; tablets from copovidone with 544 ppm (VEL SSD) / 655 ppm (VOX SSD) peroxides, Initial, time 0
  Dissolved at 30 min (%): 99%
[1]; tablets from copovidone with 544 ppm (VEL SSD) / 655 ppm (VOX SSD) peroxides, closed, 1 g desiccant, 25° C./60% RH, 12 weeks
  Dissolved at 30 min (%): 99%
[1]; tablets from copovidone with 544 ppm (VEL SSD) / 655 ppm (VOX SSD) peroxides, closed, 1 g desiccant, 40° C./75% RH, 4 weeks
  Dissolved at 30 min (%): 99%
[1]; tablets from copovidone with 544 ppm (VEL SSD) / 655 ppm (VOX SSD) peroxides, closed, 1 g desiccant, 40° C./75% RH, 12 weeks
  Dissolved at 30 min (%): 99%
[1]; tablets from copovidone with 544 ppm (VEL SSD) / 655 ppm (VOX SSD) peroxides, open, no desiccant, 40° C./75% RH, 4 weeks
  Dissolved at 30 min (%): 100%
[1]; tablets, desiccant study, closed, 1 g desiccant, 40° C./75% RH, 4 weeks
  Dissolved at 30 min (%): 99%
[1]; tablets, desiccant study, closed, 1 g desiccant, 40° C./75% RH, 12 weeks
  Dissolved at 30 min (%): 99%
[1]; tablets, desiccant study, closed, 1 g desiccant, 40° C./75% RH, 24 weeks
  Dissolved at 30 min (%): 100%
[1]; tablets, desiccant study, closed, no desiccant, 25° C./60% RH, 12 weeks
  Dissolved at 30 min (%): 99%
[1]; tablets, desiccant study, closed, no desiccant, 40° C./75% RH, 12 weeks
  Dissolved at 30 min (%): 99%
